# Measurements: article PMC3944389, “Differential Neuroprotective Effects of 5′-Deoxy-5′-Methylthioadenosine” (PLoS ONE, 2014)
# Experiments:
# [1] = test system: rat mixed astrocyte-neuron cultures; experiment: NMDA-induced caspase 3 activation in mixed astrocyte-neuron cultures; format: cell-based; conditions: pre- or co-treatment; MTA 250 µM, MK-801 10 µM; 300 µM NMDA
# Method: Finally, to prepare neuron-astrocyte co-cultures, neurons were resuspended in B27 Neurobasal medium plus 10% of foetal bovine serum (FBS) and then seeded onto a monolayer of astrocytes in 24-well plates at a density of 1–2×10^5 cells per well, the astrocytes having been prepared beforehand, as described elsewhere. One day later, the medium was replaced with B27-Neurobasal plus 10% FBS medium, and the cells were maintained at 37°C in 5% CO2. The cultures were used 8–9 days after plating. Neurons and astrocytes were identified with antibodies against microtubule-associated protein-2 and GFAP, respectively.
# To assay N-methyl–D-aspartate (NMDA) excitotoxicity, primary cultures were seeded in 24-well plates at 15×10^4 cells/well, cultured for 7 days in vitro, and treated for different times with the vehicle alone (dimethyl sulfoxide (DMSO) 1%), NMDA (300 µM), NMDA (300 µM) + MTA (250 µM) or NMDA (300 µM) + MK-801, a NMDA receptor antagonist (10 µM). […] Caspase 3 activity was measured in these lysates one hour after the NMDA addition.
# Cortical neurons, or mixed cortical neurons and glia, were seeded in poly-L-lysine-coated 6-well culture plates during 7 days in vitro before start the set of experiments. […] The extracts were then centrifuged at 5,000×g for 10 min at 4°C and the protein content was determined by the BCA protein assay. […]
# [2] = test system: co-culture of bovine-brain endothelial cells (BBECs) and newborn rat astrocytes; experiment: In vitro cell model of transport across the BBB; format: in vitro ADME
# Method: A in vitro cell model of BBB permeability was established using a co-culture of bovine-brain endothelial cells (BBECs) and newborn rat astrocytes. The cells were first cultured in 24-well (Transwell^R) permeable supports with a surface area of 0.33 cm^2 and a pore size of 0.4 µm (Corning), the upper surface of which was coated with collagen type IV and fibronectin. The inserts were then placed upside down in a large petri dish, and 40 µL of a suspension (containing approximately 45,000 astrocytes) was placed on the bottom of each filter. The petri dish was incubated at 37°C for 1 h, and 40 µL of fresh DMEM+S was added to the bottom of each filter every 15 min. The inserts were then transferred back to the plate and incubated at 37°C in 5% CO2 for 3 d. Then, 2 h before seeding the BBECs, the medium was replaced by DMEM+S supplemented with 125 µg/mL heparin and 2 h later, the cells were seeded onto the inserts (45,000 cells per filter). The plate was incubated at 37°C in 5% CO2 for 3 more days, after which the medium was replaced by DMEM+S supplemented with cyclic adenosine monophosphate (cAMP) and RO-20-1724, and kept at 37°C in 5% CO2. On day 8 of the co-culture, the transendothelial electrical resistance (TEER) was measured to determine whether the system was ready for transport studies. To validate the maturity of the model, permeability assays with lucifer yellow (LY) were performed in parallel as a marker of the integrity of the in vitro barrier. During the permeability assay, the samples were co-incubated with LY (20 µM) to assess the integrity of the cellular monolayer during the assay.
# [3] = test system: primary rat oligodendrocyte (OL) cultures; experiment: AMPA excitotoxicity in primary oligodendrocytes, calcein-AM viability; format: cell-based; conditions: MTA 100 and 300 µM pre-incubated 15 min, viability 24 h after AMPA
# Method: Primary rat oligodendrocyte (OL) cultures were derived from the optic nerve of 12-day-old Sprague-Dawley rats, as described previously. Cells were seeded onto 12 mm diameter coverslips coated with poly-D-lysine (10 µg/ml) in 24-well plates at a density of 5×10^3 cells per well. The cells were maintained at 37°C in 5% CO2 and in a chemically defined medium. After 2–4 days in vitro, the cultures were composed of at least 98% O4/galactocerebroside-positive (O4/GalC) cells, while the majority of the remaining cells were stained with antibodies against glial fibrillary acidic protein (GFAP). No A2B5^+ or microglial cells were detected in these cultures.
# For a-amino-3-hydroxy-5-methyl-4-isoxazolepropionic acid (AMPA) assays in primary rat OLs, cells were pre-incubated with MTA (100 µM and 300 µM) for 15 min and then exposed to AMPA (10 µM) for an additional period of 15 min. Cell viability was assessed with calcein-AM (Invitrogen) 24 h after application of AMPA, and the number of survival cells on each coverslip was detected by their fluorescence (515 nm filter) and quantified.
# [4] = test system: Wistar rats, transient MCAO model of focal brain ischemia; experiment: Transient focal ischemia (MCAO), infarct volume by TTC staining; format: in vivo, rat; conditions: 30 mg/kg i.p. twice daily from 30 min after onset of ischemia, 3 days reperfusion; compared with vehicle
# Method: Male Wistar rats (270-300 g; Harlan) were subjected to transient focal ischemia for 90 min by producing right middle cerebral artery occlusion (MCAO) as described previously, followed by reperfusion for 3 days and MTA treatment (30 mg/kg, intraperitoneally –i.p.- twice daily) starting 30 min after the onset of ischemia (n = 5 in each experimental group). Cerebral blood flow was monitored transcranially with a laser Doppler flowmeter (Perimed) and the infarct volume was assessed by 2,3,5-triphenyltetrazolium chloride (TTC) staining. Transient forebrain ischemia was induced as described elsewhere, by occluding the vertebral and common carotid arteries (4VO) for 10 min, followed by reperfusion for 7 days and MTA treatment (as above) starting 30 min after the onset of ischemia (n = 5 in vehicle group; n = 6 in the […]). The effectiveness of the treatment was assessed by using fluoro-Jade C staining to measure the levels of degenerated neurons in the CA1 region of the hippocampal formation.
substance,measurement,setting,value
5′-deoxy-5′-methylthioadenosine [MTA],caspase 3 activation induced by NMDA,[1],reverted to basal levels
same,Pe x 10^−6 (cm/s),[2],4.5 x 10^−6 cm/s
same,effective permeability coefficient (Pe),[2],4.5 ×10⁻⁶ cm/s
same,protection of OLs against AMPA toxicity (calcein-AM),[3],fully protected
same,volume of the infarct area,[4],did not show any reduction
